The record followed here is patent publication US12258331B2, “Pyrimidine derivative and preparation process and use thereof” (Guangdong Lewwin Pharmaceutical Research Institute Co., Ltd., priority 2018, dated 2025).

Data set [1] in a line: Pharmacokinetic properties after intravenous injection and intragastric administration. The class given is in vivo, mice. As to the method: Shanghai Medicilon Bio-pharmaceutical Co., LTD was commissioned to research pharmacokinetic properties of the novel pyrimidine derivatives (R)-14, (R)-5b, and Tepotinib in mice. The specific processes are: An appropriate amount of the compounds (R)-14, (R)-5b and Tepotinib were accurately weighed and dissolved in a solution containing 2% Solutol and 98% 100 mM sodium acetate to obtain a clear dosing solution at a concentration of 2 mg/mL for intravenous administration. An appropriate amount of the compounds (R)-14, (R)-5b were accurately weighed and dissolved in 5% Solutol and 95% saline to obtain a clear dosing solution at a concentration of 5 mg/mL. An appropriate amount of Tepotinib was accurately weighed and dissolved in 5% Solutol, 5% DMSO and 90% saline, for oral administration and injection. Blood was collected from the test […] via jugular vein puncture, about 0.3 mL for per sample, and using heparin sodium as the anticoagulant. The time points for blood sampling were as below (including intravenous injection and oral administration): before administration, 5 min, 15 min, 30 min, 1 h, 2 h, 4 h, 8 h and 24 h post administration. After collection, blood samples were placed on ice, and plasma was separated by centrifugation within 30 minutes (centrifugation conditions: 8000 rpm, 6 minutes, 2-8° C.). The collected plasma was stored at −80° C. before analysis. Plasma samples were all analyzed qualitatively and quantitatively by LC-MS/MS. The dosage and ways for administration were intravenous injection (IV, 2 mg/kg) and intragastric administration (PO, 5 mg/kg) respectively, with the pharmacokinetic data shown in Table 3.

Data set [2] can be described thus: Metabolic stability in rat liver microsomes. Conditions: 37° C. How it is done: Firstly, a SD rat (200-300 g) was fasted for 12 hours, and then infused rapidly with normal saline. Liver was taken out from the rat, from which liver microsomes were extracted at 0-4° C., ready for use after calibrating the concentration of liver microsomes. At 37° C., liver microsomes were incubated in combination with a certain concentration of compounds and auxiliary reagents for a period of time. The reaction was then quenched with acetonitrile.

The mark [3] stands for this setting: Sprague-Dawley, mouse, in vivo, iv, 2 mg/kg.
The mark [4] stands for this setting: Sprague-Dawley, mouse, in vivo, po, 5 mg/kg.

Regarding `[2H]C([2H])([2H])C([2H])(c1cccc(-c2ncc(OCC3CCN(C)CC3)cn2)c1)n1nc(-c2cccc(C#N)c2)ccc1=O` (stereo in doubt) [(R)-14], in data set [1] (setting [3]), the “AUC0-∞” value worked out at 2441.64 ng·h/mL, the CL is 13.652 mL/min/kg and the T1/2 was 4.48 h. For the same compound, in data set [1] (setting [4]), the “AUC0-∞” value came to 6309.37 ng·h/mL and the time to peak (Tmax) is 4 h.
Take `C[C@H](c1cccc(-c2ncc(OCC3CCN(C)CC3)cn2)c1)n1nc(-c2cccc(C#N)c2)ccc1=O` [(R)-5b]: in data set [1] (setting [3]), the “AUC0-∞” value amounted to 2143.91 ng·h/mL, the CL worked out at 15.548 mL/min/kg and the T1/2 is 4.23 h. In addition, in data set [1] (setting [4]), the “AUC0-∞” value amounted to 4580.23 ng·h/mL.
Take `CN1CCC(COc2cnc(-c3cccc(Cn4nc(-c5cccc(C#N)c5)ccc4=O)c3)nc2)CC1` [Tepotinib]: in data set [2], the “T1/2 (metabolic half-life in liver microsomes)” value was 0.345 h. Besides, in data set [1] (IV 2 mg/kg), the “AUC0-∞” value stood at 562.74 ng·h/mL, the CL was determined as 59.2338 mL/min/kg, the T1/2 came out at 1.79 h and the distribution volume (Vz) was 9.17868 L/kg. Also, in data set [1] (PO 5 mg/kg), the “AUC0-∞” value was determined as 981.69 ng·h/mL, the Cmax is given as 211.23 ng/mL and the Tmax is 1 h. For the same compound, the “F % (bioavailability)” value in data set [1] (PO 5 mg/kg vs IV 2 mg/kg) was 67.77%.
